System: ArBNR2
Assay: Luminescence (GFP-aequorin Ca2+) assay, CHO-K1 cells coexpressing ArBNR2 and Gqs5
Format: cell-based, Asterias rubens
Settings: ArBNR2, words; up to 10^-5 M
Experimental: Having investigated relationships of eleven A. rubens BN-type receptor candidates (ArBNR1-11) with BN-type, ET-type, and CCHa/EP-type receptors in other taxa, ArBNR1 was identified as the best candidate and therefore this was selected for experimental testing. However, two other receptors (ArBNR2 and ArBNR3) were also tested. The methods employed for functional characterization of A. rubens neuropeptide receptors have been described previously ([57]) and a description of the methods employed in this study is included in SI Appendix, SI Methods. […]
Functional characterization of A. rubens BN-type receptors
Two cDNAs encoding ArBNR1 and ArBNR3 were cloned from A. rubens radial nerve cord cDNA using Q5 polymerase (NEB, Cat. no. M0491S) and PCR with specific primers (SI Appendix, Table S5). To facilitate expression of the cloned receptors, the forward primers were designed to contain a partial Kozak consensus sequence (ACC) before the ATG start codon. Then, PCR products were inserted into the mammalian expression vector pcDNA 3.1(+) (Invitrogen, Cat. no.
V79020) that had been cut in advance with the restriction enzyme EcoRV (NEB, Cat. no. […] Successful ligation and the direction of the insert was determined by restriction enzyme digestion and sequencing (TubeSeq service; Eurofins Genomics). […]
identical to residues 18 - 270 of the protein XP_033631283.1, which was determined from genome […]

Substance	peptide-induced luminescence
NYNRVFGPTY-NH2 [ArBN5-14, C-terminally amidated 10-residue peptide corresponding to the C-terminal region of ArBN]	did not trigger luminescence
EPMPSSLALYIANLSP-NH2 [ArBNP65-81, C-terminally amidated 16-residue peptide predicted to be derived from residues 65 to 81 of ArBNP]	did not trigger luminescence

Source: PMC12002301, “Discovery and functional characterization of a bombesin-type neuropeptide signaling system in an invertebrate” (Proceedings of the National Academy of Sciences of the …, 2025)
